In the CheMixHub ionic liquid set:
± gives the uncertainty stated by the source.

Experiment: xn = mol fraction of the nth substance listed
Conditions: 100 kPa

CC[n+]1ccn(C)c1.O=S(=O)([O-])O + Cc1ncc(CO)c(CO)c1O.Cl + O
viscosity [mPa·s]
Conditions | 293.15 K | 298.15 K | 303.15 K | 308.15 K | 313.15 K
x2 = 0, x1 = 0.0009002 | 1.048 ± 0.08 | 0.945 ± 0.08 | 0.835 ± 0.08 | 0.758 ± 0.08 | 0.693 ± 0.08
x2 = 0, x1 = 0.001799 | 1.067 ± 0.081 | 0.948 ± 0.08 | 0.855 ± 0.08 | 0.772 ± 0.08 | 0.702 ± 0.08
x2 = 0, x1 = 0.002696 | 1.083 ± 0.081 | 0.963 ± 0.08 | 0.862 ± 0.08 | 0.776 ± 0.08 | 0.707 ± 0.08
x2 = 0.000265, x1 = 0.002695 | 1.088 ± 0.081 | 0.968 ± 0.08 | 0.867 ± 0.08 | 0.781 ± 0.08 | 0.712 ± 0.08
x2 = 0.0002728, x1 = 0.0008999 | 1.052 ± 0.08 | 0.949 ± 0.08 | 0.839 ± 0.08 | 0.762 ± 0.08 | 0.697 ± 0.08
x2 = 0.0002827, x1 = 0.001798 | 1.072 ± 0.081 | 0.953 ± 0.08 | 0.86 ± 0.08 | 0.777 ± 0.08 | 0.707 ± 0.08
x2 = 0.0004855, x1 = 0.0008998 | 1.056 ± 0.08 | 0.953 ± 0.08 | 0.843 ± 0.08 | 0.766 ± 0.08 | 0.701 ± 0.08
x2 = 0.0005353, x1 = 0.002694 | 1.093 ± 0.081 | 0.973 ± 0.08 | 0.872 ± 0.08 | 0.786 ± 0.08 | 0.717 ± 0.08
x2 = 0.0005469, x1 = 0.001798 | 1.077 ± 0.081 | 0.958 ± 0.08 | 0.865 ± 0.08 | 0.782 ± 0.08 | 0.712 ± 0.08
x2 = 0.0008161, x1 = 0.0008994 | 1.062 ± 0.08 | 0.959 ± 0.08 | 0.849 ± 0.08 | 0.772 ± 0.08 | 0.707 ± 0.08
x2 = 0.0008296, x1 = 0.002693 | 1.099 ± 0.081 | 0.979 ± 0.08 | 0.878 ± 0.08 | 0.792 ± 0.08 | 0.723 ± 0.08
x2 = 0.0008311, x1 = 0.001797 | 1.082 ± 0.081 | 0.963 ± 0.08 | 0.87 ± 0.08 | 0.787 ± 0.08 | 0.717 ± 0.08
x2 = 0.001096, x1 = 0.0008992 | 1.067 ± 0.081 | 0.964 ± 0.08 | 0.854 ± 0.08 | 0.777 ± 0.08 | 0.712 ± 0.08
x2 = 0.001123, x1 = 0.001797 | 1.088 ± 0.081 | 0.969 ± 0.08 | 0.877 ± 0.08 | 0.793 ± 0.08 | 0.723 ± 0.08
x2 = 0.001138, x1 = 0.002693 | 1.106 ± 0.081 | 0.986 ± 0.08 | 0.884 ± 0.08 | 0.797 ± 0.08 | 0.729 ± 0.08
x2 = 0.001364, x1 = 0.000899 | 1.073 ± 0.081 | 0.97 ± 0.08 | 0.86 ± 0.08 | 0.784 ± 0.08 | 0.718 ± 0.08
x2 = 0.001383, x1 = 0.001796 | 1.094 ± 0.081 | 0.976 ± 0.08 | 0.882 ± 0.08 | 0.798 ± 0.08 | 0.728 ± 0.08
x2 = 0.001395, x1 = 0.002692 | 1.111 ± 0.081 | 0.992 ± 0.08 | 0.889 ± 0.08 | 0.803 ± 0.08 | 0.734 ± 0.08
x2 = 0.001638, x1 = 0.0008987 | 1.078 ± 0.081 | 0.976 ± 0.08 | 0.866 ± 0.08 | 0.79 ± 0.08 | 0.724 ± 0.08
x2 = 0.001641, x1 = 0.001796 | 1.099 ± 0.081 | 0.981 ± 0.08 | 0.888 ± 0.08 | 0.805 ± 0.08 | 0.734 ± 0.08
x2 = 0.001656, x1 = 0.002691 | 1.117 ± 0.081 | 0.998 ± 0.08 | 0.896 ± 0.08 | 0.808 ± 0.08 | 0.739 ± 0.08
